Results from patent US20100210649A1, “PYRIDAZINONES AND FURAN-CONTAINING COMPOUNDS” (Sloan-Kettering Institute for Cancer Research, priority 2006, published 2010).
Read-outs that look alike come from different tables or passages of the source.

How the values were obtained:
H1650 = assay: Non Small Cell Lung Cancer proliferation assay (Alamar Blue reduction), H1650; assay type: cell-based, human; conditions: Homo sapiens
In short: (§1)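 Dose-response run: cells were counted, dispensed at 250 cells/well onto compound, incubated 48 hours at 37° C, then incubated with Alamar Blue for an additional 48 hours before fluorescence measurement. All wells held 1% DMSO final.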

H2030 = assay: Non Small Cell Lung Cancer proliferation assay (Alamar Blue reduction), H2030; assay type: cell-based, human; conditions: Homo sapiens
In short: as §1

H3255 = assay: Non Small Cell Lung Cancer proliferation assay (Alamar Blue reduction), H3255; assay type: cell-based, human; conditions: Homo sapiens
In short: as §1

H358 = assay: Non Small Cell Lung Cancer proliferation assay (Alamar Blue reduction), H358; assay type: cell-based; conditions: Homo sapiens, NCI-H358
In short: as §1

H1734 = assay: Non Small Cell Lung Cancer proliferation assay (Alamar Blue reduction), H1734; assay type: cell-based, human; conditions: Homo sapiens, NCI-H1734
In short: as §1

[1] = system: HPL1D (human peripheral lung epithelial) cell line; assay: Cell proliferation / dose response (Alamar Blue), HPL1D; assay type: cell-based; conditions: HPL1D, 12 point doubling dilution 10 uM to 5 nM, 48 h treatment, alamar blue additional 48 h, read-out: IC50 HPL1D
Experimental: WI-38: human lung fibroblast cell line. […] WT: wildtype; WT*: over-expressed wildtype. Dose response studies against 34 compounds from the pyridazinone and phenylfuran-carboxamide class were conducted. […] In addition, Tarceva was included in these dose response studies. The dose response studies were done with the following standard procedure. […] The cells were incubated for 48 hours at 37 C to complete treatment, and then alamar blue was added for an additional 48 hours. Finally, alamar blue reduction was measured and the data was loaded into ORIS, our data screening acquisition platform.

H820 = assay: Dose response study (Alamar Blue), H820; assay type: cell-based; conditions: Homo sapiens, NCI-H820; H820; 12 point doubling dilution 10 uM to 5 nM; 48 h treatment, alamar blue additional 48 h; read-out: IC50 H820
Experimental: (§2) Dose response studies against 34 compounds from the pyridazinone and phenylfuran-carboxamide class were conducted. […] In addition, Tarceva was included in these dose response studies.
(§3) The dose response studies were done with the following standard procedure. First, the cells were counted and dispensed at 250 cells/well into 384-well microplates with compound. The cells were incubated for 48 hours at 37 C to complete treatment, and then alamar blue was added for an additional 48 hours. Finally, alamar blue reduction was measured and the data was loaded into ORIS, our data screening acquisition platform.

PC9 = assay: Dose response study (Alamar Blue), PC9; assay type: cell-based; conditions: Homo sapiens, PC-9; PC9; 12 point doubling dilution 10 uM to 5 nM; 48 h treatment, alamar blue additional 48 h; read-out: IC50 PC9
Experimental: as §2, §3

A549 = assay: Dose response study (Alamar Blue), A549; assay type: cell-based; conditions: Homo sapiens; A549; 12 point doubling dilution 10 uM to 5 nM; 48 h treatment, alamar blue additional 48 h; read-out: IC50 A549
Experimental: as §2, §3

H23 = assay: Dose response study (Alamar Blue), H23; assay type: cell-based; conditions: Homo sapiens, NCI-H23; H23; 12 point doubling dilution 10 uM to 5 nM; 48 h treatment, alamar blue additional 48 h; read-out: IC50 H23
Experimental: as §2, §3

H460 = assay: Dose response study (Alamar Blue), H460; assay type: cell-based; conditions: Homo sapiens, NCI-H460; H460; 12 point doubling dilution 10 uM to 5 nM; 48 h treatment, alamar blue additional 48 h; read-out: IC50 H460
Experimental: as §2, §3

H2122 = assay: Dose response study (Alamar Blue), H2122; assay type: cell-based; conditions: Homo sapiens, NCI-H2122; H2122; 12 point doubling dilution 10 uM to 5 nM; 48 h treatment, alamar blue additional 48 h; read-out: IC50 H2122
Experimental: as §2, §3

H2444 = assay: Dose response study (Alamar Blue), H2444; assay type: cell-based; conditions: Homo sapiens, NCI-H2444; H2444; 12 point doubling dilution 10 uM to 5 nM; 48 h treatment, alamar blue additional 48 h; read-out: IC50 H2444
Experimental: as §2, §3

[2] = NCI-H1650, 48 h, H1650, 12 point doubling dilution 10 uM to 5 nM, 48 h treatment, alamar blue additional 48 h, read-out: IC50 H1650
[3] = NCI-H1650, dose response 10 M to 5 nM, IC50, read-out: Dose Response (uM) H1650
[4] = NCI-H2030, 48 h, H2030, 12 point doubling dilution 10 uM to 5 nM, 48 h treatment, alamar blue additional 48 h, read-out: IC50 H2030
[5] = NCI-H2030, dose response 10 M to 5 nM, IC50, read-out: Dose Response (uM) H2030
[6] = NCI-H3255, 48 h, H3255, 12 point doubling dilution 10 uM to 5 nM, 48 h treatment, alamar blue additional 48 h, read-out: IC50 H3255
[7] = NCI-H3255, dose response 10 M to 5 nM, IC50, read-out: Dose Response (uM) H3255
[8] = H358, 12 point doubling dilution 10 uM to 5 nM, 48 h treatment, alamar blue additional 48 h, read-out: IC50 H358
[9] = read-out: Dose Response (uM) H358
[10] = H1734, 12 point doubling dilution 10 uM to 5 nM, 48 h treatment, alamar blue additional 48 h, read-out: IC50 H1734
[11] = read-out: Dose Response (uM) H1734

| IC50 (H1650; [2]) [µM] | IC50 (H1650; [3]) [µM] | IC50 (H2030; [4]) [µM] | IC50 (H2030; [5]) [µM] | IC50 (H3255; [6]) [µM] | IC50 (H3255; [7]) [µM] | IC50 (H358; [8]) [µM] | IC50 (H358; [9]) [µM] | IC50 (H1734; [10]) [µM] | IC50 (H1734; [11]) [µM] | IC50 (H820) [nM] | IC50 (PC9) [nM] | IC50 (A549) [nM] | IC50 (H460) [nM] | IC50 (H2122) [nM] | IC50 (H2444) [nM] | SMILES | IC50 [1] [nM] | IC50 (H23) [nM] |
| --- | --- | --- | --- | --- | --- | --- | --- | --- | --- | --- | --- | --- | --- | --- | --- | --- | --- | --- |
| 1.69 | 2.42 | 0.9 | 0.89 | 1.86 | 1.63 | 1.13 | 0.55 | 2.51 | 2.12 | 340 | 1570 | 2270 | 3510 | 2160 | 850 | Cc1cccc(-n2ncc(Cl)c(Cl)c2=O)c1C [compound 257018] | 1300 | 240 |
| 3.04 | 2.04 | 1.79 | 1.26 | 2.38 | 1.76 | 1.83 | 0.94 | 3.87 | 2.42 | 770 | 2400 | 3760 | 5230 | 4040 | 1170 | COc1nn(-c2cccc(C)c2)c(=O)c(Cl)c1Cl [compound 257028] | 1930 | 680 |

More lines, now with the values behind:

| SMILES | IC50 (H1650; [2]) [µM] | IC50 (H1650; [3]) [µM] | IC50 (H2030; [4]) [µM] | IC50 (H2030; [5]) [µM] | IC50 (H3255; [6]) [µM] | IC50 (H3255; [7]) [µM] | IC50 (H358; [8]) [µM] | IC50 (H358; [9]) [µM] | IC50 (H1734; [10]) [µM] | IC50 (H1734; [11]) [µM] | IC50 (H820) [nM] | IC50 (PC9) [nM] | IC50 (A549) [nM] | IC50 (H460) [nM] | IC50 (H2122) [nM] | IC50 (H2444) [nM] | IC50 [1] [nM] | IC50 (H23) [nM] |
| --- | --- | --- | --- | --- | --- | --- | --- | --- | --- | --- | --- | --- | --- | --- | --- | --- | --- | --- |
| Cc1ccc(-n2ncc(Cl)c(Cl)c2=O)cc1C [compound 257019] | 4.15 | 2.4 | 0.8 | 0.53 | 2.01 | 1.23 | 0.79 | 0.24 | 4.65 | 2.01 | 670 | 1980 | 4200 | 4090 | 4380 | 820 | 620 | 690 |
| Cc1cc(C)cc(-n2ncc(Cl)c(Cl)c2=O)c1 [compound 257020] | 2.58 | 2.1 | 0.57 | 0.56 | 1.35 | 0.92 | 0.62 | 0.22 | 2.62 | 1.83 | 450 | 1550 | 2870 | 2930 | 2210 | 400 | 410 | 460 |
| O=c1c(Cl)c(Cl)cnn1-c1ccc(C(F)(F)F)cc1 [compound 267060] | 3.95 | 3.92 | 1.11 | 1.09 | 2.29 | 2.27 | 1.39 | 0.29 | 5.23 | 1.6 | 1480 | 3490 | 5310 | 4260 | 6000 | 1260 | 560 | 1070 |
